This is an account of results in patent publication US20260258064A1 (SIRONAX LTD., priority 2023, published 2026).

For orientation: IC50 means the concentration at which inhibition is half-maximal.

The target in the test is T1, SARM1 (50-724) (Homo sapiens, UniProt Q6SZW1).
T1 construct: Purified SARM1 (50-724) with a final concentration of 2 nM was pre-incubated with a test compound
T1 sequence (Q6SZW1 50-724): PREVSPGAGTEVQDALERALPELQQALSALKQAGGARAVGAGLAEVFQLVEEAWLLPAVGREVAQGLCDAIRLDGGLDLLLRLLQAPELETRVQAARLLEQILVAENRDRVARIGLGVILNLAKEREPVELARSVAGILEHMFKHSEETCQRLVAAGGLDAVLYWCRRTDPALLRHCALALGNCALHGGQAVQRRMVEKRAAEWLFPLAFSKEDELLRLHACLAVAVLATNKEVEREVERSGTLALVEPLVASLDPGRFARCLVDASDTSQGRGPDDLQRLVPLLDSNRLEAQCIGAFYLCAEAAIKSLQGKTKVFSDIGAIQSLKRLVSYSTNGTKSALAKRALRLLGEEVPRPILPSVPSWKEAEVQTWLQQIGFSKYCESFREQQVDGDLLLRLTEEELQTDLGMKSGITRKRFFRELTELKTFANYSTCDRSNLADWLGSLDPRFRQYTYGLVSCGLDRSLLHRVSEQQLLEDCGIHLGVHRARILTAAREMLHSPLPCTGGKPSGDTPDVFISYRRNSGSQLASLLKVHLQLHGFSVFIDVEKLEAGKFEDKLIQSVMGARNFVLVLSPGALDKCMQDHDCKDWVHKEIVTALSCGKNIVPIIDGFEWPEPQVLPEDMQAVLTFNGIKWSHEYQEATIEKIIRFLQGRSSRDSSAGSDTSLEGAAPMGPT
The experiment in a line: SARM1 (50-724) enzymatic assay (LC-MS/MS). Format: biochemical. As to conditions: Purified SARM1 (50-724) 2 nM, NMN as activator, NAD+ as substrate, 1 h at room temperature, read-out: IC50 (SARM1 inhibitory activity). As for the experimental part:
An enzymatic assay was performed in a 384-well plate using Dulbecco's phosphate-buffered saline (PBS) as the reaction buffer. Purified SARM1 (50-724) with a final concentration of 2 nM was pre-incubated with a test compound at […] final assay concentration for 15 min at room temperature. The reaction was initiated by adding a mixture of […] nicotinamide mononucleotide (NMN) as activator and […] NAD^+ as substrate. After 1 h of incubation at room temperature, the reaction was terminated with 10 times volume of 70% acetonitrile, and then centrifuged at 3800 rpm for 10 min. The samples were analyzed using LC-MS/MS after diluted to a proper concentration by 10 mM ammonium acetate (pH 9.75).
In Table 2, activity is provided as follows: A: IC50≤100 nM; B: 100 nM<IC50≤500 nM; C: 500 nM<IC50≤1000 nM; D: IC50>1000 nM.
Consider `NC(=O)c1nnc(-c2nc3cc(C(F)(F)F)ccc3[nH]2)n1-c1cccc(Cl)c1Cl` [Compound 77], for which the IC50 lay in the range of 100 to 500 nM. `Cn1cc(-c2nc(Cl)c(Cl)s2)c(-c2nc3cc(C(F)(F)F)ccc3[nH]2)cc1=O` [Compound 97]: the IC50 was more than 1000 nM. The same measure for `CSc1nnc(-c2nc3cc(C(F)(F)F)ccc3[nH]2)n1-c1cccc(Cl)c1Cl` [Compound 116]: 100 to 500 nM; for `FC(F)(F)c1ccc2[nH]c(-c3nnc(OC4CSC4)n3-c3cccc(Cl)c3Cl)nc2c1` [Compound 131]: more than 1000 nM. For the molecule `Clc1cccc(-n2cnnc2-c2nc3cc(C4CCCO4)ccc3[nH]2)c1Cl` (stereo not drawn) [Compound 136, 2-(4-(2,3-dichlorophenyl)-4H-1,2,4-triazol-3-yl)-5-(tetrahydrofuran-2-yl)-1H-benzo[d]imidazole], the IC50 was not above 100 nM. The same measure for `CS(=O)(=O)CCc1nnc(-c2nc3cc(C(F)(F)F)ccc3[nH]2)n1-c1cccc(Cl)c1Cl` [Compound 138, 2-(4-(2,3-dichlorophenyl)-5-(2-(methylsulfonyl)ethyl)-4H-1,2,4-triazol-3-yl)-5-(trifluoromethyl)-1H-benzo[d]imidazole]: not above 100 nM; for `CS(=O)(=O)NCc1nnc(-c2nc3cc(C(F)(F)F)ccc3[nH]2)n1-c1cccc(Cl)c1Cl` [Compound 139, N-((4-(2,3-dichlorophenyl)-5-(5-(trifluoromethyl)-1H-benzo[d]imidazol-2-yl)-4H-1,2,4-triazol-3-yl)methyl)methanesulfonamide]: not above 100 nM; for `CC(O)C(C)(C)c1ccc2[nH]c(-c3nncn3-c3cccc(Cl)c3Cl)nc2c1` (stereo not drawn) [Compound 140, 3-(2-(4-(2,3-dichlorophenyl)-4H-1,2,4-triazol-3-yl)-1H-benzo[d]imidazol-5-yl)-3-methylbutan-2-ol]: not above 100 nM. The same measure for `FC(F)(F)c1cc2nc(-c3nncn3-c3cccc(Cl)c3Cl)[nH]c2cn1` [Compound 142, 2-(4-(2,3-dichlorophenyl)-4H-1,2,4-triazol-3-yl)-6-(trifluoromethyl)-3H-imidazo[4,5-c]pyridine]: more than 1000 nM.

In the case of `CNC(=O)Cc1nnc(-c2nc3cc(C(F)(F)F)ccc3[nH]2)n1-c1cccc(Cl)c1Cl` [Compound 143, 2-(4-(2,3-Dichlorophenyl)-5-(5-(trifluoromethyl)-1H-benzo[d]imidazol-2-yl)-4H-1,2,4-triazol-3-yl)-N-methylacetamide], the IC50 was not above 100 nM. To `OC1CN(Cc2nnc(-c3nc4cc(C(F)(F)F)ccc4[nH]3)n2-c2cccc(Cl)c2Cl)C1` [Compound 144, 1-((4-(2,3-dichlorophenyl)-5-(5-(trifluoromethyl)-1H-benzo[d]imidazol-2-yl)-4H-1,2,4-triazol-3-yl)methyl)azetidin-3-ol] belongs not above 100 nM; to `CCc1nnc(-c2nc3cc(C(F)(F)F)ccc3[nH]2)n1-c1cccc(Cl)c1Cl` [Compound 145, 2-(4-(2,3-dichlorophenyl)-5-ethyl-4H-1,2,4-triazol-3-yl)-5-(trifluoromethyl)-1H-benzo[d]imidazole], not above 100 nM. As to `CC(C)(C)c1ccc2[nH]c(-c3nncn3-c3nc(O)ccc3Cl)nc2c1` [Compound 148, 6-(3-(5-(tert-butyl)-1H-benzo[d]imidazol-2-yl)-4H-1,2,4-triazol-4-yl)-5-chloropyridin-2(1H)-one], the IC50 was not above 100 nM.

On to `FC(F)(F)c1ccc2[nH]c(-c3nncn3-c3c(Cl)cccc3Cl)nc2c1` [Compound 149, 2-(4-(2,6-dichlorophenyl)-4H-1,2,4-triazol-3-yl)-5-(trifluoromethyl)-1H-benzo[d]imidazole], for which the IC50 is not above 100 nM. As for `COC(C)(c1ccc2[nH]c(-c3nncn3-c3ccc(F)c(F)c3Cl)nc2c1)C1COC1` (stereo not drawn) [Compound 150, 2-(4-(2-chloro-3,4-difluorophenyl)-4H-1,2,4-triazol-3-yl)-5-(1-methoxy-1-(oxetan-3-yl)ethyl)-1H-benzo[d]imidazole], the IC50 is 100 to 500 nM. To `CCC(O)(CC)c1ccc2[nH]c(-c3nncn3-c3ccc(F)c(F)c3Cl)nc2c1` [Compound 151, 3-(2-(4-(2-chloro-3,4-difluorophenyl)-4H-1,2,4-triazol-3-yl)-1H-benzo[d]imidazol-5-yl)pentan-3-ol] belongs not above 100 nM; to `CC(C#N)c1ccc2[nH]c(-c3nncn3-c3ccc(F)c(F)c3Cl)nc2c1` (stereo not drawn) [Compound 152, 2-(2-(4-(2-chloro-3,4-difluorophenyl)-4H-1,2,4-triazol-3-yl)-1H-benzo[d]imidazol-5-yl)propanenitrile], not above 100 nM.

For `C[S+]([O-])c1ccc2[nH]c(-c3nncn3-c3cccc(Cl)c3Cl)nc2c1` (stereo not drawn) [Compound 153, 2-(4-(2,3-dichlorophenyl)-4H-1,2,4-triazol-3-yl)-5-(methylsulfinyl)-1H-benzo[d]imidazole], the IC50 is 100 to 500 nM. For the molecule `CC1(c2ccc3[nH]c(-c4nncn4-c4cccc(Cl)c4Cl)nc3c2)CCO1` (stereo not drawn) [Compound 154, 2-(4-(2,3-dichlorophenyl)-4H-1,2,4-triazol-3-yl)-5-(2-methyloxetan-2-yl)-1H-benzo[d]imidazole], the 50% inhibitory concentration (IC50) was not above 100 nM.

Turning to `COC(C)c1ccc2[nH]c(-c3nncn3-c3ccc(F)c(F)c3Cl)nc2c1` (stereo not drawn) [Compound 155, 2-(4-(2-chloro-3,4-difluorophenyl)-4H-1,2,4-triazol-3-yl)-5-(1-methoxyethyl)-1H-benzo[d]imidazole], the IC50 is not above 100 nM. To `CNC(=O)CCc1nnc(-c2nc3cc(C(F)(F)F)ccc3[nH]2)n1-c1cccc(Cl)c1Cl` [Compound 156, 3-(4-(2,3-dichlorophenyl)-5-(5-(trifluoromethyl)-1H-benzo[d]imidazol-2-yl)-4H-1,2,4-triazol-3-yl)-N-methylpropanamide] belongs not above 100 nM; to `FC1(F)CN(Cc2nnc(-c3nc4cc(C(F)(F)F)ccc4[nH]3)n2-c2cccc(Cl)c2Cl)C1` [Compound 157, 2-(4-(2,3-dichlorophenyl)-5-((3,3-difluoroazetidin-1-yl)methyl)-4H-1,2,4-triazol-3-yl)-5-(trifluoromethyl)-1H-benzo[d]imidazole], not above 100 nM; to `CC(=O)c1ccc2[nH]c(-c3nncn3-c3ccc(F)c(F)c3Cl)nc2c1` [Compound 158, 1-(2-(4-(2-chloro-3,4-difluorophenyl)-4H-1,2,4-triazol-3-yl)-1H-benzo[d]imidazol-5-yl)ethan-1-one], not above 100 nM. For `N#Cc1cccc(-n2cnnc2-c2nc3cc(C(F)(F)F)ccc3[nH]2)c1Cl` [Compound 159, 2-chloro-3-(3-(5-(trifluoromethyl)-1H-benzo[d]imidazol-2-yl)-4H-1,2,4-triazol-4-yl)benzonitrile], the IC50 was not above 100 nM. For the molecule `FC(F)(F)Oc1ccccc1-n1cnnc1-c1nc2cc(C(F)(F)F)ccc2[nH]1` [Compound 160], the IC50 is not above 100 nM. To `O=c1cc(-n2cnnc2-c2nc3cc(C(F)(F)F)ccc3[nH]2)c(Cl)c[nH]1` [Compound 163, 5-Chloro-4-(3-(5-(trifluoromethyl)-1H-benzo[d]imidazol-2-yl)-4H-1,2,4-triazol-4-yl)pyridin-2(1H)-one] belongs not above 100 nM; to `Cc1c(Cl)ccc2[nH]c(-c3nncn3-c3ccc(F)c(F)c3Cl)nc12` [Compound 164, 5-chloro-2-(4-(2-chloro-3,4-difluorophenyl)-4H-1,2,4-triazol-3-yl)-4-methyl-1H-benzo[d]imidazole], not above 100 nM. On to `CN1CCC(C)(c2ccc3[nH]c(-c4nncn4-c4ccc(F)c(F)c4Cl)nc3c2)C1=O` (stereo not drawn) [Compound 165, 3-(2-(4-(2-chloro-3,4-difluorophenyl)-4H-1,2,4-triazol-3-yl)-1H-benzo[d]imidazol-5-yl)-1,3-dimethylpyrrolidin-2-one], for which the IC50 lay in the range of 100 to 500 nM. The same measure for `FC(F)(F)c1ccc2[nH]c(-c3nncn3-c3c(Cl)cccc3-c3ccn[nH]3)nc2c1` [Compound 168, 2-(4-(2-chloro-6-(1H-pyrazol-5-yl)phenyl)-4H-1,2,4-triazol-3-yl)-5-(trifluoromethyl)-1H-benzo[d]imidazole]: 100 to 500 nM; for `COc1ncc(Cl)c(-n2cnnc2-c2nc3cc(C(F)(F)F)ccc3[nH]2)n1` [Compound 169, 2-(4-(5-chloro-2-methoxypyrimidin-4-yl)-4H-1,2,4-triazol-3-yl)-5-(trifluoromethyl)-1H-benzo[d]imidazole]: more than 1000 nM.
